Assay results as given in article PMC7109729 (Haematologica, 2020).

Target: T1, peroxisome proliferator-activated receptor-γ (PPARγ) (Homo sapiens, UniProt P37231)
T1 sequence (P37231 223-505 limits assumed): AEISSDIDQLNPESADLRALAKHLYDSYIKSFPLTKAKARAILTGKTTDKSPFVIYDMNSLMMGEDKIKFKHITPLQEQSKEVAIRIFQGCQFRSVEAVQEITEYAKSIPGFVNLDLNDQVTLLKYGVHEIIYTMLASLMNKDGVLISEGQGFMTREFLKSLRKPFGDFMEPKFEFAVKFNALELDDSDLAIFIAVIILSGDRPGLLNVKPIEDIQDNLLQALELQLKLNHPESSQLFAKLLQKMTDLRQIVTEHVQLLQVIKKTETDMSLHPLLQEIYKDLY
Assay: SPR
Assay type: binding

Molecule `CC(C)/N=c1\cc2n(-c3ccc(Cl)cc3)c3ccccc3nc-2cc1Nc1ccc(Cl)cc1` [CFZ, clofazimine] has a Kd of 79 nM.
